Key:
[1] = test system: human cervical tumor cell line HeLa (ATCC CCL-2); assay: SAC-Formation - Paclitaxel-Induced Assay; type: cell-based; conditions: Homo sapiens, HeLa, 24 h, HeLa cells, paclitaxel 0.05 μM, test range 0.005 μM-20 μM, read-out: IC50 [mol/l] SAC-Formation - Paclitaxel-Induced Assay
In short: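 HeLa cells incubated overnight at 37° C, then given paclitaxel (0.05 μM final) plus test compound (0.005–20 μM, 0.5% DMSO) together for 24 h at 37° C. Fixed cells stained for phospho-histone H3 Ser10 (mitotic cells) and Hoechst 33342 (cell count); imaging-derived mitotic index fitted by four-parameter Hill equation.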

[2] = biological target: T1, CDK2/CycE (Homo sapiens, UniProt P24941); assay: CDK2/CycE kinase assay (TR-FRET); type: biochemical; conditions: avg, read-out: CDK2 avg (IC50 [mol/l])
T1 construct: GST; purchased ProQinase GmbH (Freiburg, Germany); host or cells: insect cells (Sf9)
In short: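 GST-tagged human CDK2 and CycE from Sf9 cells, preincubated 15 min with compound, then 25 min at 22° C. with 10 μM ATP and 0.75 μM biotinylated Rb-derived peptide (final). Phospho-substrate read by TR-FRET (anti-pRB pSer807/pSer811, Eu anti-mouse IgG, streptavidin-XL665), 665/620 nm ratio, normalised to no-inhibitor and no-enzyme controls.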

IC50 [1]	IC50 [2]	SMILES
290 nM	≥ 20000 nM	Cc1nsc(Nc2cnc(C(F)(F)F)cn2)c1C(=O)Nc1ccc(F)c(OCC2CCN(C(CF)CF)C2)c1 (stereo not drawn) [Example 320, N-(3-{[1-(1,3-difluoropropan-2-yl)pyrrolidin-3-yl]methoxy}-4-fluorophenyl)-3-methyl-5-{[5-(trifluoromethyl)pyrazin-2-yl]amino}-1,2-thiazole-4-carboxamide]
1100 nM	≥ 20000 nM	Cc1nsc(Nc2cnc(C(F)(F)F)cn2)c1C(=O)Nc1ccc(OCCNCCF)nc1 [Example 321, N-(6-{2-[(2-fluoroethyl)amino]ethoxy}pyridin-3-yl)-3-methyl-5-{[5-(trifluoromethyl)pyrazin-2-yl]amino}-1,2-thiazole-4-carboxamide]
150 nM	≥ 20000 nM	Cc1nsc(Nc2cnc(C(F)(F)F)cn2)c1C(=O)Nc1ccc(OCCNCC(F)(F)F)nc1 [Example 322, 3-methyl-N-(6-{2-[(2,2,2-trifluoroethyl)amino]ethoxy}pyridin-3-yl)-5-{[5-(trifluoromethyl)pyrazin-2-yl]amino}-1,2-thiazole-4-carboxamide]

— patent US20170334899A1, “AMINO-SUBSTITUTED ISOTHIAZOLES” (Bayer Pharma Aktiengesellschaft, priority 2014, published 2017)
